Experimental data published in ChEMBL document CHEMBL6074641, “Polypharmacological Drug Design Guided by Integrating Phenotypic and Restricted Fragment Docking Strategies” (J Med Chem, 2024).
The source made the active and inactive calls. No cut-off for these calls is given here.

Columns and labels:
[1] = system: Mus musculus; experiment: Anti-alzheimer activity against 8 month old 3xTg mouse model assessed as decrease in anxiety level at 2 to 10 mg/kg, po administered 4 times per week for 4 weeks; format: functional, organism-based; details: dose 2-10 mg/kg
[2] = biological target: hERG (KCNH2) (Homo sapiens, UniProt Q12809); experiment: Inhibition of human ERG expressed in CHO cells at 20 uM by Qpatch clamp method relative to control; format: toxicity, cell-based; details: CHO cells that express hERG
Sequence of hERG (KCNH2) (Q12809 whole entry): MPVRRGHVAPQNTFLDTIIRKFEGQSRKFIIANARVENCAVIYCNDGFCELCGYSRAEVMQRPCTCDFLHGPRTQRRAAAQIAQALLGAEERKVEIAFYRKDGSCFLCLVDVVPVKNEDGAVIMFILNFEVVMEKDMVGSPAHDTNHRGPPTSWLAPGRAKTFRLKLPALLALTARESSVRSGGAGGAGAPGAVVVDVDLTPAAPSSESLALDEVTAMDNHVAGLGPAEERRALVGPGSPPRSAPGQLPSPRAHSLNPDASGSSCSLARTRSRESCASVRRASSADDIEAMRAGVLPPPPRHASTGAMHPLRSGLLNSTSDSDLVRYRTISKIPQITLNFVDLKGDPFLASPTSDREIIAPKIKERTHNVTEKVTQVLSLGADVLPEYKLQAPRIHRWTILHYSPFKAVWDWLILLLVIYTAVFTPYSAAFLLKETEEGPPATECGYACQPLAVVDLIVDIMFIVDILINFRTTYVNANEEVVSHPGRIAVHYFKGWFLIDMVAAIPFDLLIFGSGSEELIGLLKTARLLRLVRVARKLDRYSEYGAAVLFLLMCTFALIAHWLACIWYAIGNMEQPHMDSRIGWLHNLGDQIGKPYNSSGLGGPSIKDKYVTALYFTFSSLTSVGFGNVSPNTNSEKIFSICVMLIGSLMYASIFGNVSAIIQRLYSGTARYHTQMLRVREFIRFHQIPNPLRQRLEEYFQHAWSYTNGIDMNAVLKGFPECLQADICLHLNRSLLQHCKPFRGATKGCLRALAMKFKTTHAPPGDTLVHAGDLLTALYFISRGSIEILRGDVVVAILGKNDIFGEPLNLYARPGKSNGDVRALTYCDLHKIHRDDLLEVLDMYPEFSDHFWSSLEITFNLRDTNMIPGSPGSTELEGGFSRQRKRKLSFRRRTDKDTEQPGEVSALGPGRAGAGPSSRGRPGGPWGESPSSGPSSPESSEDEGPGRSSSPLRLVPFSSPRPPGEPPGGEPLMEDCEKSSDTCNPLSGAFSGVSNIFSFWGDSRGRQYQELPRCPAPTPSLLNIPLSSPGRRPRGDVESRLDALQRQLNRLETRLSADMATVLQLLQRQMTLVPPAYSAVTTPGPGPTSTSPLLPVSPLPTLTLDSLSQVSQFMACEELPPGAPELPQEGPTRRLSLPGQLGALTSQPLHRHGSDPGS

[3] = biological target: Mitogen-activated protein kinase kinase kinase kinase 4 (Mus musculus) (UniProt P97820); experiment: Inhibition of MAP4K4 activation in mouse BV-2 cells by Western blotting analysis; format: cell-based; details: dose 4-100 nM
[4] = AUC(0 to t) in C57BL/6 mouse brain at 10 mg/kg, po measured upto 24 hrs by LC-MS/MS analysis; format: ADME, organism-based
[5] = biological target: T1, ALK tyrosine kinase receptor (Homo sapiens, UniProt Q9UM73); experiment: Inhibition of recombinant ALK (1060 to end residues) (unknown origin) expressed in Escherichia coli […] using IGF1Rtide as substrate preincubated for 15 mins followed by substrate and ATP addition and measured after 90 mins by ADP-Glo luminescence […] assay
[6] = system: BV-2; experiment: Inhibition of MLKL activation in mouse BV-2 cells by Western blotting analysis; format: cell-based; details: dose 4-100 nM
[7] = biological target: T1, ALK tyrosine kinase receptor; experiment: Inhibition of ALK (unknown origin) at 1 uM
Target sequence in this assay (Q9UM73 19-1620 limits assumed): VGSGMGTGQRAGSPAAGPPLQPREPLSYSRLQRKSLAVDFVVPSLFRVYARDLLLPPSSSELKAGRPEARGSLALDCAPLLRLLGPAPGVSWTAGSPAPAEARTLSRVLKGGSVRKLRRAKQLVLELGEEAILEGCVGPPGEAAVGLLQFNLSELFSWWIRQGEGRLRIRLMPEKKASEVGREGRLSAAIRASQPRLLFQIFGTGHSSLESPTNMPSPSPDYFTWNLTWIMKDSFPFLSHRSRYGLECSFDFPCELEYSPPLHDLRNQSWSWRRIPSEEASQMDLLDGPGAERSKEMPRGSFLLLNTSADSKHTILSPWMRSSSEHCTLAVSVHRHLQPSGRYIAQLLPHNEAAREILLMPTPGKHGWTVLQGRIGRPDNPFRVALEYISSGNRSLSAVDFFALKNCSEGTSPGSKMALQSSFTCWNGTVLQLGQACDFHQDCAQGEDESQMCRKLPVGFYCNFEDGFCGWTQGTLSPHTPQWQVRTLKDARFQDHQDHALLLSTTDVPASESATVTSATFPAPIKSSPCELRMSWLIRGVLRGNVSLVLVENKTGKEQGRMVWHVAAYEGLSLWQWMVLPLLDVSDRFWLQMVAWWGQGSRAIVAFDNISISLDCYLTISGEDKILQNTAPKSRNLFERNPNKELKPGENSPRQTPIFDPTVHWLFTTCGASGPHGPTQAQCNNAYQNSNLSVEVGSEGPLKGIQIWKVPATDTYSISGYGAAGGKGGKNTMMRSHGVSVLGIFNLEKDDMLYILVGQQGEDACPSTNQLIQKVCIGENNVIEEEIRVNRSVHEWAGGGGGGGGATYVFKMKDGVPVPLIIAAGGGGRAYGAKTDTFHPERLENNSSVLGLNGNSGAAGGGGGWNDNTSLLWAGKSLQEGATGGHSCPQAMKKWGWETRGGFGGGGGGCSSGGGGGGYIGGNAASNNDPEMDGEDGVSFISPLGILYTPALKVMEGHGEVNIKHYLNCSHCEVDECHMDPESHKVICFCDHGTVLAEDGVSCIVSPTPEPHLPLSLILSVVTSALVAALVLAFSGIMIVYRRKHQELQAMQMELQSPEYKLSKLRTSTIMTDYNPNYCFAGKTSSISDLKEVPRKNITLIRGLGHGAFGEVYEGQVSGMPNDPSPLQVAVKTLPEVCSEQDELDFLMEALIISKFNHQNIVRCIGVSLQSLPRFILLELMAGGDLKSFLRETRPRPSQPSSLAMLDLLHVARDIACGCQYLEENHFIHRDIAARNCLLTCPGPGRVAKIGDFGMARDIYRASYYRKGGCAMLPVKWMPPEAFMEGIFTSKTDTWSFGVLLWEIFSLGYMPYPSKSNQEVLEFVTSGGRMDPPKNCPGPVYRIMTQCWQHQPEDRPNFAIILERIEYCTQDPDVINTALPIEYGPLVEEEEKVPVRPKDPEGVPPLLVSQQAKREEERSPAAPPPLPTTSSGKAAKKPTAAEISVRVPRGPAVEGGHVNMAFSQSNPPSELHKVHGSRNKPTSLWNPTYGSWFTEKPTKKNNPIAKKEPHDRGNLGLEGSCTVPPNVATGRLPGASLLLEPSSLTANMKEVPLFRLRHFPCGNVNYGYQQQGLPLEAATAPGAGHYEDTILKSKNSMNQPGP

[8] = system: Mus musculus; experiment: Anti-alzheimer activity against 5 month old APP/PS1 transgenic mouse model assessed as increase in searching frequency towards annulus at 10 mg/kg, po administered 4 times per week for 4 weeks; format: functional, organism-based
[9] = system: Mus musculus; experiment: Anti-alzheimer activity against 8 month old 3xTg mouse model assessed as improved cognitive ability at 2 mg/kg, po administered 4 times per week for 4 weeks; format: functional, organism-based
[10] = Cmax in C57BL/6 mouse plasma at 10 mg/kg, po measured upto 24 hrs by LC-MS/MS analysis; format: ADME, organism-based
[11] = Unbound plasma protein binding in mouse incubated for 24 hrs by HPLC based equilibrium dialysis method; format: ADME, cell-free
[12] = system: Microglia; experiment: Anti-necroptosis activity in LPS/zVAD stimulated mouse primary microglia overexpressed with RIPK1 assessed as reversal of mitochondrial swelling by TEM analysis; format: functional, cell-based
[13] = system: BV-2; experiment: Anti-necroptosis activity in mouse BV-2 cells assessed as reduction in p65 expression at 100 nM by confocal microscopic analysis; format: functional, cell-based
[14] = system: Microglia; experiment: Anti-necroptosis activity in LPS/zVAD stimulated mouse primary microglia transfected with Myc-tagged ALK plasmid assessed as protection of microglia cells at 100 nM; format: functional, cell-based
[15] = system: Mus musculus; experiment: Anti-alzheimer activity against 5 month old APP/PS1 transgenic mouse model assessed as decrease in anxiety level at 2 to 10 mg/kg, po administered 4 times per week for 4 weeks; format: functional, organism-based; details: dose 2-10 mg/kg
[16] = Anti-necroptosis activity in LPS/zVAD stimulated mouse primary microglia assessed as protection of microglia cells at 100 nM; format: functional
[17] = system: BV-2; experiment: Anti-inflammatory activity against LPS/zVAD treated mouse BV-2 cells assessed as decrease in TNFalpha release at 100 nM by ELISA; format: functional, cell-based
[18] = system: Mus musculus; experiment: Anti-alzheimer activity in 8 month old 3xTg mouse model assessed as reversal of transcriptomic changes in Plxnd1 at 10 mg/kg, po; format: functional, organism-based
[19] = system: Microglia; experiment: Anti-necroptosis activity in LPS/zVAD stimulated mouse primary microglia transfected with HA-tagged MAP4K4 plasmid assessed as protection of microglia cells at 100 nM; format: functional, cell-based
[20] = biological target: Cytochrome P450 3A4 (Homo sapiens, UniProt P08684); experiment: Inhibition of CYP3A4 (unknown origin) using midazolam as substrate incubated for 10 mins in presence of NADPH by LC-MS/MS analysis; format: ADME
Sequence of Cytochrome P450 3A4 (P08684 whole entry): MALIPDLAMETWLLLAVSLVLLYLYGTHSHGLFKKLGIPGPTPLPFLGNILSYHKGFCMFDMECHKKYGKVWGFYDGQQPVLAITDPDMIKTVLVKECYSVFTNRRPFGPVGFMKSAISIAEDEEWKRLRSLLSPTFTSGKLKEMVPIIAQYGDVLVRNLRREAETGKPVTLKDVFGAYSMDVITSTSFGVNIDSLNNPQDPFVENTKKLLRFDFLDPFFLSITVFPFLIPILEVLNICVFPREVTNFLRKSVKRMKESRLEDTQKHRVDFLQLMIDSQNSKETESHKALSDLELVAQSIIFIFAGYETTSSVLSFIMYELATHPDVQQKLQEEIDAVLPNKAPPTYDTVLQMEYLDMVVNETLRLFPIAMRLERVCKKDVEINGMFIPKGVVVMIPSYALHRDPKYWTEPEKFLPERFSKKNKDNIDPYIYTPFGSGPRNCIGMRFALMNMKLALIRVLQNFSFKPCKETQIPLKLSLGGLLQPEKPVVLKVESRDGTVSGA

[21] = system: Mus musculus; experiment: Anti-alzheimer activity in 8 month old 3xTg mouse model assessed as reversal of transcriptomic changes in Lamc2 at 10 mg/kg, po; format: functional, organism-based
[22] = system: Mus musculus; experiment: Anti-necroptosis activity in 3xTg mouse hippocampus assessed as reduction in Iba activation at 2 to 10 mg/kg, po; format: functional, organism-based; details: dose 2-10 mg/kg
[23] = system: Mus musculus; experiment: Anti-alzheimer activity against 5 month old APP/PS1 transgenic mouse model assessed as decrease in restlessness at 2 to 10 mg/kg, po administered 4 times per week for 4 weeks; format: functional, organism-based; details: dose 2-10 mg/kg
[24] = system: Microglia; experiment: Anti-necroptosis activity in LPS/zVAD stimulated mouse primary microglia overexpressed with ALK assessed as reversal of translucent cytoplasm by TEM analysis; format: functional, cell-based
[25] = system: Mus musculus; experiment: Anti-alzheimer activity against 8 month old 3xTg mouse model assessed as decrease in restlessness at 2 to 10 mg/kg, po administered 4 times per week for 4 weeks; format: functional, organism-based; details: dose 2-10 mg/kg
[26] = system: Mus musculus; experiment: Downregulation of MAP4K4 phosphorylation in 3xTg mouse hippocampus at 2 to 10 mg/kg, po by immunohistochemistry analysis; format: functional, organism-based; details: dose 2-10 mg/kg
[27] = biological target: ALK tyrosine kinase receptor (Mus musculus) (UniProt P97793); experiment: Inhibition of ALK activation in mouse BV-2 cells by Western blotting analysis; format: cell-based; details: dose 4-100 nM
[28] = system: Mus musculus; experiment: Anti-alzheimer activity against 8 month old 3xTg mouse model assessed as improved spatial preference towards annulus at 10 mg/kg, po administered 4 times per week for 4 weeks; format: functional, organism-based
[29] = system: Mus musculus; experiment: Anti-alzheimer activity against 8 month old 3xTg mouse model assessed as reduction in p-Tau181 content at 2 to 10 mg/kg, po; format: functional, organism-based; details: dose 2-10 mg/kg
[30] = system: Microglia; experiment: Anti-necroptosis activity in LPS/zVAD stimulated mouse primary microglia assessed as reversal of severe membrane disruption by TEM analysis; format: functional, cell-based
[31] = system: Mus musculus; experiment: Anti-alzheimer activity against 5 month old APP/PS1 transgenic mouse model assessed as improved cognitive ability at 10 mg/kg, po administered 4 times per week for 4 weeks; format: functional, organism-based
[32] = biological target: Mitogen-activated protein kinase kinase kinase kinase 4 (Homo sapiens, UniProt O95819); experiment: Inhibition of recombinant MAP4K4 (1 to 328 residues) (unknown origin) expressed in Escherichia coli BL21([…]) using MBP as substrate preincubated for 15 mins followed by substrate and ATP addition and measured after 90 mins by ADP-Glo luminescence […] assay
Sequence of Mitogen-activated protein kinase kinase kinase kinase 4 (O95819 whole entry, the tested form may be a part): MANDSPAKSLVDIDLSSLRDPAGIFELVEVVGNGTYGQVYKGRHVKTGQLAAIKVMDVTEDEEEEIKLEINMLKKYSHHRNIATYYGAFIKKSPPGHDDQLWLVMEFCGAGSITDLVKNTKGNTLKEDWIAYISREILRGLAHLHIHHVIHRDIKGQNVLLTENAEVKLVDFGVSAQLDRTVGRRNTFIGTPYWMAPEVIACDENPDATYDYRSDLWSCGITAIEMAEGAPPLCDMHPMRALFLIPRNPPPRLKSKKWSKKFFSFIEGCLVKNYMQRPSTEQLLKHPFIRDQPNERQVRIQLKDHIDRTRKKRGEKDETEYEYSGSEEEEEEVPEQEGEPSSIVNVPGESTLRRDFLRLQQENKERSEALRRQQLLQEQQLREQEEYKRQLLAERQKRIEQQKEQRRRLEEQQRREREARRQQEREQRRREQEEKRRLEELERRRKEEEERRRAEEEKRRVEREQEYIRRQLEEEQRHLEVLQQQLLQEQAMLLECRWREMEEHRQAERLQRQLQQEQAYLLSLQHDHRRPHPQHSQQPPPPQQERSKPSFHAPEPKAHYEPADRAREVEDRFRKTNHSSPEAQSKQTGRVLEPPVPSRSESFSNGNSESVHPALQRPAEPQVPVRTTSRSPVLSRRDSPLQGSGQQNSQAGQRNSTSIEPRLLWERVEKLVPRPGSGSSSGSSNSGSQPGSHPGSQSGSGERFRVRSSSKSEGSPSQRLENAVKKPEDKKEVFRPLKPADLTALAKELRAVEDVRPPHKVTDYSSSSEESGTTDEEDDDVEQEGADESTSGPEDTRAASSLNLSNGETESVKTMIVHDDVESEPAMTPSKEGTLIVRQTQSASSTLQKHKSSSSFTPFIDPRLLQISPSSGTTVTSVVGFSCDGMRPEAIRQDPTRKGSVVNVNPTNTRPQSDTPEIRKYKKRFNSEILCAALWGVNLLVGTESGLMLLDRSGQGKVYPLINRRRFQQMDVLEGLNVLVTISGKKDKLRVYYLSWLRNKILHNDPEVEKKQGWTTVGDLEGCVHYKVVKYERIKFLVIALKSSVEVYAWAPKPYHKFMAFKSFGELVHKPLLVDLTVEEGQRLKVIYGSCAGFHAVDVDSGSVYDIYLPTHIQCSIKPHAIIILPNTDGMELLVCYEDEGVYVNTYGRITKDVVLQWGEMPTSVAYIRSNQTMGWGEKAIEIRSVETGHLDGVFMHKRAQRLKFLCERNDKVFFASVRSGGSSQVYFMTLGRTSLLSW

[33] = system: Microglia; experiment: Anti-necroptosis activity in LPS/zVAD stimulated mouse primary microglia assessed as reversal of translucent cytoplasm by TEM analysis; format: functional, cell-based
[34] = Tmax in C57BL/6 mouse plasma at 10 mg/kg, po measured upto 24 hrs by LC-MS/MS analysis; format: ADME, organism-based
[35] = Half-life in C57BL/6 mouse brain at 10 mg/kg, po measured upto 24 hrs by LC-MS/MS analysis; format: ADME, organism-based
[36] = system: Mus musculus; experiment: Anti-alzheimer activity against 8 month old 3xTg mouse model assessed as reduction in Tau aggregation at 2 to 10 mg/kg, po; format: functional, organism-based; details: dose 2-10 mg/kg
[37] = system: Mus musculus; experiment: Downregulation of RIPK1 phosphorylation in 3xTg mouse hippocampus at 2 to 10 mg/kg, po by immunohistochemistry analysis; format: functional, organism-based; details: dose 2-10 mg/kg
[38] = system: Mus musculus; experiment: Anti-necroptosis activity in 3xTg mouse hippocampus assessed as reduction in pMLKL activation at 2 to 10 mg/kg, po; format: functional, organism-based; details: dose 2-10 mg/kg
[39] = AUC(0 to t) in C57BL/6 mouse plasma at 10 mg/kg, po measured upto 24 hrs by LC-MS/MS analysis; format: ADME, organism-based
[40] = system: Microglia; experiment: Anti-necroptosis activity in LPS/zVAD stimulated mouse primary microglia overexpressed with ALK assessed as reversal of severe membrane disruption by TEM analysis; format: functional, cell-based

## Cc1cc(F)cc(Nc2ncc(Nc3ccc(SC(F)(F)F)cc3)cc2C(N)=O)c1
[1]
  Activity: Active
[2]
  inhibition at 20 µM: 11.3%
[3]
  inhibition: Dose-dependent-effect
[4]
  AUC(0-t) at 24 h: 2970 ng·h/mL
[5]
  IC50: 0.62 µM
[6]
  inhibition: Dose-dependent-effect
[7]
  inhibition: Active
[8]
  Activity: Active
[9]
  Activity: Active; Activity More Potent Than Nec-1
[10]
  Cmax: 1180 ng/mL
[11]
  Fu: 0.8%
[12]
  Activity: inactive
[13]
  Activity: Active
[14]
  Activity: inactive
[15]
  Activity: Active
[16]
  Activity: 100%
[17]
  Activity: Active
[18]
  Activity: Active
[19]
  Activity: inactive
[20]
  IC50: > 10 µM
[21]
  Activity: Active
[22]
  Activity: Active
[23]
  Activity: Active
[24]
  Activity: inactive
[25]
  Activity: Active
[26]
  Activity: Active; Activity More Potent Than Nec-1
[27]
  inhibition: Dose-dependent-effect
[28]
  Activity: Active
[29]
  Activity: Active
[30]
  Activity: Active
[31]
  Activity: Active
[32]
  IC50: 0.41 µM
[33]
  Activity: Active
[34]
  Tmax: 2.93 h
[35]
  half-life: 8.46 h
[36]
  Activity: Active
[37]
  Activity: Active; Activity More Potent Than Nec-1
[38]
  Activity: Active
[39]
  AUC(0-t) at 24 h: 10900 ng·h/mL
[40]
  Activity: inactive
